Here are results for 13 compounds from patent publication EP0358047A2, “Method of controlling phytopathogenic fungi” (AMERICAN CYANAMID COMPANY, priority 1988, dated 1990).

Common to all, as to assay: In vitro fungicide screen: inhibition of mycelial growth on agar medium
What all share (assay type): cell-based

Test [1] relates to Botrytis cinerea (Botry). The settings on record: five days, room temperature. The procedure: (§1) Severe soilborne diseases such as damping off, seedling blight, crown rot, and root rot, among others are caused by certain plant pathogenic fungi. An in vitro assay is conducted to determine whether test compounds will inhibit the mycelial growth of said fungi. Pathogens, the method of testing, and the rating system used are reported below.
(§2) Assay fungi include the following plant pathogens: • Botrytis cinerea (Botry) • Pseudocerosporella herpotrichoides (Pseudo) • Pythium ultimum (Pyth) • Rhizoctonia solani (Rhiz)
(§3) The test compound (2.5-10 mg) is dissolved in 0.5 mL acetone, diluted with 4.5 mL sterile deionized water, and mixed with 95 mL of an autoclaved and partially cooled, chemically defined agar medium in a 250 mL flask. Test compounds that are insoluble are prepared as a fine suspension ultrasonically, or with a glass tissue grinder, before addition to the medium. The chemically defined medium used in these experiments is as follows: • 15 g of sucrose, 0.5 g NH4Cl, 0.5 g KNO3, 0.5 g KH2PO4, 0.5 g K2HP04, 0.25 g MgSO4.7H2O, 50 mg CaC)2.6H20, 0.75 mg FeSO4.7H2O, 0.22 mg MnSO4.5H2O, 0.6 mg CuSO4.5H2O, 7.5 mg ZnC12, 2.5 mg thiamine, 60 µg(NH4)6Mo7O24.4H2O, 90 u.g H3BO3, 5 ug biotin, 20 g agar, and water to 1L.
(§4) The mixture of test compound and agar medium as described above is poured into several 100 mm x 15 mm sterile plastic plates and allowed to solidify. The surface of each plate is inoculated with a single disc of mycelium and agar cut with an 8 mm diameter cork borer from actively growing cultures of assay fungi on a chemically defined agar medium. The plates are incubated at room temperature. Growth inhibition is determined when the mycelial growth on unamended control media has reached the edge of the petri plates. The time interval varies depending on the growth rate of the fungus; two days for Pythium ultimum (Pyth) and Rhizoctonia solani (Rhiz), five days for Botrytis cinerea (Botry), and 7-10 days for Pseudocercosporella herpotrichoides (Pseudo). Each colony diameter is measured and compared with the untreated control and the percent inhibition is calculated as follows: [formula] Each test includes a solvent blank consisting of the formulation without a test compound in addition to the untreated control.

For test [2], the system named is Pseudocercosporella herpotrichoides (Pseudo). The settings on record: 7-10 days, room temperature. The procedure: as §1, §2, §3, §4
The test system of test [3] is Rhizoctonia solani (Rhiz). The settings on record: for inhibition at 10 ppm: read-out: % Growth Inhibition Rhiz. The procedure:
as §1, §2, §3, §4

Test [4] concerns Pythium ultimum (Pyth). Conditions: two days, room temperature; for inhibition at 1 ppm: Rate 1 ppm in agar medium. The procedure: as §1, §2, §3, §4
The mark [5] stands for this setting: Botrytis cinerea, 120 h, Rate 100 ppm in agar medium.
The mark [6] stands for this setting: Oculimacula yallundae, Rate 100 ppm in agar medium.
Setting [7] is: Rhizoctonia solani, 48 h, Rate 100 ppm in agar medium, two days, room temperature.
Where [8] appears, read: Globisporangium ultimum, 48 h, Rate 100 ppm in agar medium.
Setting [9] is: Rhizoctonia solani, 48 h, Rate 10 ppm in agar medium, two days, room temperature.

Read-outs that look alike come from different tables or passages of the source.

One may read the inhibition as the relative decrease from the control value, in per cent. Turning to `N#Cc1cc[nH]c1-c1ccc(Cl)cc1` [2(p-Chlorophenyl)-pyrrole-3-carbonitrile], the inhibition at 100 ppm in test [1] (setting [5]) stood at 68%; in test [2] (setting [6]), 86%; in test [3] (setting [7]), 61%; in test [4] (setting [8]), 95%.
As to `O=[N+]([O-])c1c(-c2ccccc2)[nH]c(Br)c1Br` [2,3-Dibromo-4-nitro-5-phenyl-pyrrole], the inhibition at 100 ppm in test [1] (setting [5]) was found to be 87%; in test [2] (setting [6]), 71%; in test [3] (setting [7]) it was 63%; in test [4] (setting [8]), 97%.
Take `O=[N+]([O-])c1c(-c2ccc(C(F)(F)F)cc2)[nH]c(Cl)c1Cl` [2,3-Dichloro-4-nitro-5-(α,α,α-trifluoro-p-tolyl)-pyrrole]: the inhibition at 100 ppm in test [1] (setting [5]), in test [2] (setting [6]), in test [3] (setting [7]) and in test [4] (setting [8]) was 100% each time.
For `O=[N+]([O-])c1c(-c2ccccc2)[nH]c(Cl)c1Cl` [2,3-Dichloro-4-nitro-5-phenyl-pyrrole, 2,3-Dichloro-4-nitro-5-phenylpyrrole], the inhibition at 100 ppm worked out at 97% in test [1] (setting [5]), 100% in test [2] (setting [6]), 81% in test [3] (setting [7]) and 100% in test [4] (setting [8]).
In the case of `O=[N+]([O-])c1c(-c2ccc(Cl)cc2)[nH]c(Cl)c1Cl` [2,3-Dichloro-5-(p-chlorophenyl) -4-nitropyrrole], the inhibition at 100 ppm amounted to 96.3% in test [1] (setting [5]), 50% in test [2] (setting [6]), 96% in test [3] (setting [7]) and 92.1% in test [4] (setting [8]).
As for `O=[N+]([O-])c1c(Br)[nH]c(Br)c1-c1ccccc1` [2,5-dibromo-3-nitro-4-phenyl-pyrrole], the inhibition at 10 ppm in test [2] (Oculimacula yallundae, Rate 10 ppm in agar medium) turned out to be 100%; in test [3] (setting [9]) it was 100%. Besides, at 1 ppm the inhibition in test [4] (Globisporangium ultimum, 48 h) was 100%.
Consider `N#Cc1cc[nH]c1-c1cccc(Cl)c1` [2-(m-Chloro-phenyl)pyrrole-3-carbonitrile], for which the inhibition at 100 ppm in test [1] (setting [5]) stood at 74%; in test [2] (setting [6]), 67%; in test [3] (setting [7]), 95%; in test [4] (setting [8]), 82%.
On to `O=[N+]([O-])c1c(-c2ccc(Br)cc2)[nH]c(Cl)c1Cl` [2-(p-Bromo-phenyl)-4,5-dichloro-3-nitropyrrole], for which the inhibition at 100 ppm in test [1] (setting [5]) was 89%; in test [2] (setting [6]) it was 83%; in test [3] (setting [7]), 92%; in test [4] (setting [8]) it was 68%.
For the compound `N#Cc1cc[nH]c1-c1ccccc1` [2-Phenylpyrrole-3-carbonitrile, 2-Phenylpyrrole-3-carbonitrile], the inhibition at 100 ppm came to 95% in test [1] (setting [5]), 100% in test [2] (setting [6]), 89% in test [3] (setting [7]) and 100% in test [4] (setting [8]).
Turning to `N#Cc1c(-c2ccccc2Cl)[nH]c(Cl)c1Cl` [4,5 Dichloro-2-(o-chlorophenyl) pyrrole-3-carbo-nitrile], the “% Growth Inhibition Botry” value in test [1] (Rate 100 ppm in agar medium) was 3.1%. Further, the “% Growth Inhibition Pseudo” value in test [2] (Rate 100 ppm in agar medium) amounted to 16.7%. Also, the “% Growth Inhibition Rhiz” value in test [3] (Rate 100 ppm in agar medium, two days, room temperature) came to 52.6%. Moreover, the “% Growth Inhibition Pyth” value in test [4] (Rate 100 ppm in agar medium) turned out to be 0%.
For the compound `N#Cc1c(-c2ccc(Cl)cc2)[nH]c(Cl)c1Cl` [4,5-Dichloro-2-(p-chlorophenyl)pyrrole-3-carbonitrile], the inhibition at 25 ppm in test [1] (Botrytis cinerea, 120 h, Rate 25 ppm in agar medium) is 82.1%; in test [2] (Oculimacula yallundae, Rate 25 ppm in agar medium), 0%; in test [3] (Rhizoctonia solani, 48 h, Rate 25 ppm in agar medium, two days, room temperature) it was 73.3%; in test [4] (Globisporangium ultimum, 48 h, Rate 25 ppm in agar medium), 34.2%. For the same compound, the inhibition at 50 ppm is 71.4% in test [1] (Botrytis cinerea, 120 h, Rate 50 ppm in agar medium); 40% in test [2] (Oculimacula yallundae, Rate 50 ppm in agar medium); 73.3% in test [3] (Rhizoctonia solani, 48 h, Rate 50 ppm in agar medium, two days, room temperature); 44.7% in test [4] (Globisporangium ultimum, 48 h, Rate 50 ppm in agar medium). The inhibition at 100 ppm in test [1] (setting [5]) was determined as 66.7%; in test [2] (setting [6]), 42.8%; in test [3] (setting [7]), 64.7%; in test [4] (setting [8]) it was 45%.
On to `N#Cc1c(-c2ccc(Cl)cc2)[nH]c(C(F)(F)F)c1Br` [4-Bromo-2-(p-chlorophenyl)-5-(trifluoromethyl)pyrrole-3-carbonitrile], for which the inhibition at 10 ppm in test [3] (Rhizoctonia solani, 48 h) was 100%.
Consider `N#Cc1cc([N+](=O)[O-])c(-c2ccc(Cl)c(Cl)c2)[nH]1` [5-(3,4-Dichlorophenyl)-4-nitropyrrole-2-carbonitrile], for which, in test [3] (setting [9]), the inhibition at 10 ppm was determined as 100%. The same compound had an inhibition at 1 ppm in test [4] (Globisporangium ultimum, 48 h) of 100%.
